Test results taken from patent US9670545B2, “Methods and kits for treating and classifying individuals at risk of or suffering from TRAP1 change-of-function” (Courtagen Life Sciences, Inc., priority 2013, dated 2017).

Test system: patient with I253V in the TRAP1 ATPase domain
Assay: Case Report 1: clinical response of a patient with I253V in the TRAP1 ATPase domain to supplementation
Format: in vivo, human
Settings: single patient
Description: A person was referred to the inventors because of a failure-to-thrive and hypoglycemia. Additional problems included constipation, temperature instability, tachycardia, delayed gastric emptying (confirmed by Scintiscan), almost-daily pain (headaches, abdominal pain, leg cramps), chronic fatigue (sleeping up to 22 hours a day), anemia (requiring multiple transfusions), repetitive episodes of right arm dyskinesia (2 minutes each, twice a week), and neurodevelopmental issues (gross motor delay, auditory processing problem, and memory defects, but cognitive delay is only 6 months). […] Episodic dyskinesia later resolved with L-arginine supplementation. However, gastrointestinal dysfunction worsened, necessitating a gastrostomy tube, followed by a jejunostomy tube. […] Pertinent results of an extensive work-up include normal brain MR, normal video-EEG, severe free carnitine deficiency (<4 micromolar, normal >19; total carnitine 17), trace elevations on urine organic acids, respiratory alkalosis (hyperventilation), and hypoglycemia (even while receiving adequate jejunal feeds or parental nutrition). […] After finding the I253V in the TRAP1 ATPase domain, antioxidant therapy was intensified, and results are pending.

N=C(N)NCCC[C@H](N)C(=O)O [L-arginine]
Episodic dyskinesia (repetitive episodes of right arm dyskinesia): resolved
